pIC50: −log10 of the molar value.

Data set [1] deals with cocultures of keratinocytes and of melanocytes. Nature of the data set: Cytotoxicity by estimating the incorporation of leucine in keratinocyte/melanocyte cocultures. The class given is cell-based. On the procedure:
(§1) The modulating effect with regard to melanogenesis of the compounds tested was measured according to the method described in Patent FR-A-2 734 825 and in the paper by R. Schmidt, P. Krien and M. Régnier, Anal. Biochem., 235(2), 113-18, 1996. This test is carried out on cocultures of keratinocytes and of melanocytes.
(§2) For the compound tested, the following were determined:
the cytotoxicity, by estimating the incorporation of leucine, […]

Data set [2] has the same test system. In words: Inhibition of melanin synthesis (ratio of thiouracil to leucine incorporation) in keratinocyte/melanocyte cocultures. The class given is cell-based. On the procedure:
as §1, §2
the inhibitory activity with regard to the synthesis of melanin, by estimating the ratio of the incorporation of thiouracil to the incorporation of leucine, with respect to 100% of the control (the control corresponds to the test carried out without compound to be tested). The IC50 (concentration at which the synthesis of melanin is inhibited by 50%) values were determined.

As for `CC(=O)OC[C@H]1O[C@@H](n2cnc3c(N)ncnc32)[C@@H]2OC(C)(C)O[C@@H]21` [Compound H, 2′,3′-isopropylidene-5′-acetyladenosine], the Cytotoxicity result in data set [1] is reported as “No”. The pIC50 in data set [2] (ratio of thiouracil to leucine incorporation, with respect to 100% of the control, read-out: IC50 (concentration at which the synthesis of melanin is inhibited by 50%)) was 4.46.

On to `Nc1ncnc2c1ncn2[C@@H]1O[C@H](CO)[C@@H](O)[C@H]1O` [adenosine, reference compound], for which the inhibition at 100 µM in data set [2] (at the concentration of 100 μM, read-out: melanin synthesis inhibited) was 20%.

Values taken from patent US20070258921A1, “PROCESS FOR DEPIGMENTING THE SKIN” (L'OREAL, priority 2006, published 2007).
